Results reported in patent publication US12576055B2, “Disease detection and treatment based on trimethyl-lysine levels” (The Cleveland Clinic Foundation, priority 2018, dated 2026).
Values belong to the molecule of their own block, whether it stands above or below them.

Assays:
[1] = test system: carotid artery thrombus formation; test: In vivo carotid artery thrombosis model (FeCl3 induced injury); design: species or system C57BL/6J mice; conditions: 1% supplemented diet for 11 days
Method: Conventional mice (female, 10 weeks old, C57BL/6J, 10 per treatment group) were placed on chemically defined diets for 11 days. Mice were assessed for in vivo thrombosis potential with the common carotid injury model by application of 10% FeCl3 for 1 min (11, 38). […] The left carotid artery was exposed and injured by placing a FeCl3 soaked filter paper for one minute. […] Time to cessation of blood flow was determined by visual inspection of computer images of the thrombosis process from 30 seconds to 30 minutes by investigators blinded to mouse treatment group.

[2] = female, C57BL/6J, mouse, in vivo
Method: Stable isotope dilution LC/MS/MS was used for quantification of TML, TMAO, TMA, lysine, γ-butyrobetaine and carnitine similar to that described previously (1, 8, 9, 15). For TML standard curves, varying levels of TML were spiked into 20 μl control plasma followed by precipitation with 80 μl methanol containing 0.8 nmol d9-TML. Supernatant was loaded for LC/MS/MS analysis. Analyses were performed using electrospray ionization in positive-ion mode with multiple reaction monitoring of parent and characteristic daughter ions and retention times specific for components monitored. The transitions monitored for TML were mass-to-charge ratio (m/z): m/z 189.1→84.1, 189.1→60.1, and 189.1→130.1. The internal standards (e.g., d9-trimethyl-TML, d9-trimethyl-TMAO) were added to plasma before protein precipitation. Various concentrations of analytes and a fixed amount of internal standards were spiked into control plasma to prepare the calibration curves for quantification of plasma analytes. Their concentrations in human and mouse plasma samples were determined by high-performance liquid chromatography with a Shimadzu 8050 triple quadrupole mass spectrometer interfaced to a Shimadzu Nexera Ultra High Performance Liquid Chromatograph (UHPLC) system.
Conventional mice (female, 10 weeks old, C57BL/6J, 10 per treatment group) were placed on chemically defined diets for 11 days.

[3] = reference (19); cited from earlier work
[4] = test system: human fecal commensals (omnivores and vegans); test: Gut microbial TMA lyase activity assay, d9-TMA production in human polymicrobial fecal anaerobic cultures; format: in vitro ADME
Method: (§1) TMA lyase activity was monitored by quantifying d9-TMA production from d9(trimethyl) labeled potential nutrient precursors by stable isotope dilution LC/MS/MS analysis. Briefly, TMA lyase activity was typically quantified by incubating the indicated enzyme source (C57BL/6J female mouse intestine segments or human feces from healthy vegans/vegetarians and omnivores). Reactions were initiated by the addition of d9-labeled substrates (d9-TML, d9-carnitine or d9-choline) incubated under anaerobic conditions. Following 20 hours incubation at 37° C., reactions were halted, [^13C3,^15N]-TMA (Sigma Chemicals, St. Louis, MO) in 0.2 N formic acid was added as an internal standard, followed by immediate extraction of TMA isotopologues into the organic layer produced following mixing with successive additions of 2 ml hexane, 1 ml butanol and 0.2 ml 1N NaOH (to deprotonate the TMA isotopologues). Mixtures were then vortexed, centrifuged, and the upper hexane layer was transferred to a 12×75 mm PTFE capped threaded glass tube, acidified with the addition of 200 μl of 0.2 N formic acid, vortexed and the organic and aqueous layers were separated by centrifugation. The now protonated TMA isotopologues were recovered in the aqueous phase for quantitation by stable isotope dilution LC/MS/MS analysis. Sample aliquots were injected onto a reverse phase C18 HPLC column (2.0×150 mm, 5 μm, Phenomenex Prodigy (Phenomenex)) eluted at a flow rate of 0.2 ml/min and resolved using a linear gradient between 0.2% formic acid in water and 0.2% formic acid in acetonitrile/methanol (95:5, v/v). HPLC column effluent was introduced into an AB Sciex 5500 QTRAP mass spectrometer using electrospray ionization in the positive-ion mode. Both d9-TMA and [^13C3,^15N]TMA were monitored using multiple reaction monitoring of parent and characteristic daughter ions: m/z 69→49 for d9-TMA; and m/z 64→47 for [^13C3,^15N]TMA. Reactions without microbial enzyme source (tissues, cells, cell lysates, or isolated proteins) were used as blank.
(§2) Human feces and all bacteria including individual strain and fresh combined 68 strains were grown with 100 μM d9-TML or d9-choline (as a positive control) in complex reduced medium in a Coy anaerobic chamber (5% H2, 20% CO2, and 75% N2, 37° C.) for 0-4 days as previously described (27). The reaction was stopped by adding 6N HCl to samples (1:100 dilution to 60 mM final), and freezing at −80° C. until d9-TMA extraction and analysis by LC-MS/MS, as described in Methods above.

[5] = test system: mouse cecal, colonic and small bowel microbiota; test: Gut microbial TMA lyase activity assay, d9-TMA production in anaerobic cultures of mouse intestine segments
Method: as §1

[6] = test system: panel of 68 culturable human commensals; test: In vitro screening for the conversion of d9-TML to d9-TMA by culturable human commensals; format: in vitro ADME, human gut bacteria
Method: as §2

[7] = Oral (gastric gavage) d9-TML or d9-choline isotope tracer challenge, serial plasma levels by LC/MS/MS
Method: Supernatant was loaded for LC/MS/MS analysis.
Whole blood (50 μl) was collected via the saphenous vein from C57BL/6J (Jackson #0664) female mice prior to gavage for the measurement of baseline analyte levels. Mice were administered an oral dose of stable isotope-labelled TML or choline. The gastric gavage consisted of 150 μl of either 150 mM synthetic d9-TML or 150 mM choline-N,N,N-trimethyl-d9 (d9-choline, Cambridge Isotope Lab), followed by post-gavage blood collection at the indicated times. Where indicated, gut microbiota were suppressed in mice by placement of a cocktail of poorly absorbed antibiotics in drinking water for 3 weeks prior to the d9-TML challenge, as previously described (1, 19). Quantification of the abundance of native and isotope-labeled forms of TML, TMA and TMAO in mouse plasma was performed using stable-isotope-dilution LC-MS/MS using established methods for TMA and TML (19), and using the parent daughter ion transitions for TML and its internal standard as described above. In additional studies, the role of gut microbiota in TMAO formation from dietary TML was determined in C57BL/6J mice by performance of oral (gavage) d9-TML challenge. Mice were housed in conventional cages in the absence or presence of a cocktail of broad spectrum antibiotics added to the drinking water previously shown to suppress gut microbiota (1,19).

[8] = test system: cutC/D, yeaX/W, or cntA/B microbial TMA generating enzyme systems; test: Recombinant microbial TMA lyases expressed in E. coli, d9-TMA production from d9-labeled substrates; format: biochemical; conditions: E. coli transformed with cutC/D
[9] = anaerobic culture, 20 hours, 37° C.
[10] = conventionally reared C57BL/6J mice, gastric gavage 150 μl of 150 mM

SMILES: C[N+](C)(C)CCCC[C@H](N)C(=O)O [TML, N6-trimethyl-lysine]
in vivo thrombosis potential (thrombus formation rate, time to cessation of blood flow) [1]: failed to significantly change
plasma level of TMAO after 11 days of the indicated diet [2]: 4.5 ± 2.1 µM
plasma level of TML after 11 days of the indicated diet [2]: 37.0 ± 15.5 µM
increase in plasma TML levels ([2]; 11 days): ~100 fold

SMILES: C[N+](C)(C)CC(=O)O [betaine]
rate as TMA nutrient precursor, less than choline [3]: about 100 fold

SMILES: C[N+](C)(C)CCO [choline]
plasma level of TMAO after 11 days of the indicated diet [2]: 90.6 ± 55.1 µM
plasma level of TML after 11 days of the indicated diet [2]: 0.8 ± 0.4 µM
rise of plasma TMAO levels ([2]; 11 days): ~20 fold

SMILES: [2H]C([2H])([2H])[N+](CCCCC(N)C(=O)O)(C([2H])([2H])[2H])C([2H])([2H])[2H] (stereo not shown) [d9-TML, [d9-N, N, N-trimethyl] lysine]
d9-TML to d9-TMA transformation, feces of omnivores versus vegans ([4]; P<0.04): significantly greater activity than vegans
overall level of TMA generation from TML in human fecal cultures ([4]; omnivores and vegans, anaerobic): relatively low
d9-TMA formation by small bowel microbes [5, 9]: significantly lower but detectable levels
d9-TMA generation by microbes from cecal and colonic segments [5, 9]: generated d9-TMA
conversion of d9-TML to d9-TMA by eighteen individual members of the human commensal library ([6]; anaerobic, 100 μM): none of these species significantly promoted conversion
d9-TML to d9-TMA transformation by pool of all 68 species ([6]; prolonged (4 days) incubation, assay limit of detection ~1 nM): virtually no detectable
plasma d9-TMAO following d9-TML oral gavage in mice treated with oral antibiotics ([7]; 3 weeks cocktail of poorly absorbed broad-spectrum antibiotics): no detectable
impact of pretreatment with oral antibiotics on plasma d9-TML levels following oral gavage ([7]; P=0.87): no impact
plasma level of d9-TMA following oral d9-TML gavage [7, 10]: rose only minimally
plasma level of d9-TMAO following oral d9-TML gavage [7, 10]: rose only minimally
time to increase in plasma d9-TML level following ingestion ([7]; oral gavage, C57BL/6J mice): ≤ 1 h
conversion into d9-TMA by recombinant microbial TMA generating enzyme systems [8]: none of the known recombinant microbial TMA generating enzyme systems examined supported d9-TML conversion into d9-TMA

Second part, the molecule after the results:

d9-TMA formed in vegan fecal cultures compared with d9-TML [4]: comparable degree
production of d9-TMA in polymicrobial fecal cultures from omnivores, greater [4]: > 100 fold
synthetic capacity of cecal microbiota to generate d9-TMA, higher than that observed with d9-TML [5]: 10 fold
SMILES: [2H]C(O)(CC(=O)[O-])C([2H])([2H])[N+](C)(C([2H])([2H])[2H])C([2H])([2H])[2H] (stereo not shown) [d9-carnitine]

d9-TMA conversion in human fecal cultures, greater than the levels produced from d9-TML [4]: approximately 3 orders of magnitude
synthetic capacity of cecal microbiota to generate d9-TMA, higher than that observed with d9-TML [5]: 1000 fold
plasma level of isotope labeled precursor compared with d9-TML challenge ([7]; mouse, in vivo): substantially lower
peak plasma level of d9-TMA, higher than after the same molar amount of oral d9-TML ([7]; mouse, in vivo, po): 30-50 fold
peak plasma level of d9-TMAO, higher than after the same molar amount of oral d9-TML ([7]; mouse, in vivo, po): 30-50 fold
SMILES: [2H]C([2H])([2H])[N+](CCO)(C([2H])([2H])[2H])C([2H])([2H])[2H] [d9-choline, choline-N,N,N-trimethyl-d9]
